The values below come from patent publication US20140107025A1, “OCULAR DRUG DELIVERY SYSTEM” (priority 2012, published 2014).

Data set [1] concerns corneal epithelial defects in the eyes of New Zealand white rabbits. In words: Rabbit corneal epithelial debridement model with healing impaired by topical dexamethasone (Example 1). It counts as in vivo. Conditions: for eyes with epithelial defect completely closed/healed by day 5: topical QID OU, all eyes on dexamethasone 0.1% QID, rHGH 100 μg/mL, 50 μL drop. The text has this: A rabbit debridement model was used to assess the effect of topically applied rHGH on corneal epithelial defect closure in a model where epithelial closure was impaired by concomitantly administered topical steroids (Dexamethasone 0.1% QID). Standard epithelial defects were created in the eyes of nine New Zealand white rabbits by standard methods. Rabbits received topical dexamethasone QID (4×/day) to all 18 eyes. Rabbits were randomized to one of three treatment arms post surgery: a control arm of dexamethasone only QID OU (both eyes), a vehicle group of BSS (balanced salt solution) QID OU, and test article of rHGH QID OU. One drop (50 μL) of rHGH (reconstituted in Ringers Lactate to achieve a final concentration of 100 μg/mL) (n=3) was applied topically four times to both eyes. All eyes were also treated with one drop of an antibiotic solution after the surgical defect creation. Photographic assessment (twice daily) and fluorescein assessment were used to determine the speed and quality of epithelial defect closure. The corneal defect size was estimated in the photographs by obtaining the pixel count of the defect and dividing by the pixel count of the cornea. The animals were sacrificed on day 5.
The solid black bars represent percent of eyes completely healed when treated with rHGH administered topically whereas the shaded bars represent percent of eyes completely healed when treated with BSS (balanced saline solution). Over the course of this study, no eyes were completely healed when treated with dexamethasone alone.

In data set [2] the test system is corneal epithelial defects in New Zealand white rabbits. Nature of the data set: Corneal epithelial impaired healing debridement model, rHGH in HYSTEM/GSSG gel (Example 3). It counts as in vivo. Conditions: topical dexamethasone 0.1% 4x/day for 7 days; normal healing 4-5 days; some rabbits not completely closed at 7 days. From the text: A corneal epithelial impaired healing debridement model was developed by utilizing a validated epithelial debridement procedure and treating immediately postoperative with topical steroids (dexamethasone). The corneal epithelial defects were created surgically in a standardized and reproducible manner in both eyes. The normal healing for epithelial defects in normal healthy rabbits is 4-5 days. […] This model confirmed delayed epithelial wound healing in New Zealand white rabbits.
Rabbits were randomized post surgical intervention to maintain a masked study. The examiner was masked to the treatment arm.
Recombinant Human Growth Hormone (rHGH) was reconstituted and prepared as instructed, and was delivered topically to the eye via a crosslinked hyaluronic acid gel polymer HYSTEM (with glutathione GSSG) at a concentration of 4 ug/day in a 50 ul drop BID, for 7 days (see Example 2). The comparator arms are shown in Table 1: (1) the polymer HYSTEM with GSSG but without rHGH (group 1) and (2) dexamethasone alone (no polymer and no rHGH) (group 3). In vivo clinical exams were performed twice daily to determine percent corneal healing, corneal defect size, and percent of eyes (cornea) completely healed.

For `C[C@@H]1C[C@H]2[C@@H]3CCC4=CC(=O)C=C[C@]4(C)[C@@]3(F)[C@@H](O)C[C@]2(C)[C@@]1(O)C(=O)CO` [dexamethasone, reference compound], in data set [1], the “eyes with epithelial defect completely closed/healed by day 5” value was 0/9. The “time of healing of epithelial defects” value in data set [2] stood at 7 days.

“rHGH: Recombinant human growth hormone; hydrophilic 22 Kda protein of 191 amino acids; Genotropin used in Example 2”: the “eyes starting to heal as quickly as Day 2” value in data set [1] (Day 2, rHGH 100 μg/mL topical QID plus dexamethasone) amounted to 10%. Moreover, in data set [1] (comparison of treatment arms over 5 days), the “speed of epithelial defect closure (photographic assessment)” value is given as “most rapid healing”. In addition, the “eyes with epithelial defect completely closed/healed by day 5” value in data set [1] is 9/9. Moreover, in data set [1] (topical ocular dosing QID, 5 days), the tolerability of dosing entry is “tolerated the dosing well without clinical concerns”.
